# “Also recorded” adds a separate entry of the source. Like-named read-outs stand apart in the source and are kept apart here.
# Columns and labels:
# TNF-alpha (TNFA) = assay: Cellular assay, TNF-alpha ELISA in LPS-treated THP-1 cells; type: cell-based; conditions: 1 μM, THP-1 human monocytes, LPS 50 ng/ml, p<0.05
# Description: THP-1 cells were grown to confluence and plated in 6-well plates. PMA (25 nM) was added to the medium and replaced with non-PMA containing medium 24 hrs later. ATH compounds (1 μM) or vehicle (0.1% DMSO) were added and allowed to incubate. After 4 hrs LPS (50 ng/ml) was added without replacement of the medium and supernatants were collected after 4 and 24 hrs. Media were placed on ice for cytokine detection using ELISA (Quantikine, R&D Systems).
# VNN1 inhibitors Compound 1 and Compound 2 show suppression of TNF-alpha (TNFA) expression after LPS (lipopolysaccharide) treatment, in THP-1 human monocytes (FIG. 3, p<0.05 for both).
# [1] = parallel artificial membrane permeation assay (PAMPA); conditions: 20 μM in PBS/MeOH 90:10, 5 hours at room temperature
# Description: (§4) The permeability of compounds was evaluated with the parallel artificial membrane permeation assay (PAMPA) as an in vivo model of passive diffusion across a porous filter coated with a lipid/oil/lipid tri-layer artificial membrane. […] Donor solutions of test compound (300 μL, 20 μM in PBS/MeOH 90:10) were added to each well of the donor plate. 200 μL of PBS/MeOH 90:10 was added to each well of the acceptor plate. The acceptor plate was coupled with the donor plate and incubated for 5 hours at room temperature (RT) without agitation. In each plate, test compound was tested in triplicate. At the end of the incubation, test compound concentration in the initial donor solution, acceptor and the donor wells were determined using LC/MS/MS. Permeability of test compound was calculated based on the formula described in “Analytical Method”.
# Vanin-1 = Vanin-1 (Homo sapiens (Human), UniProt O95497); assay: VNN1 inhibitor binding assay (Kd, affinity beads, qPCR readout); conditions: read-out: Vanin Affinity (nM), Vanin-1 Binding constants
# Chain of Vanin-1 (O95497 22-513): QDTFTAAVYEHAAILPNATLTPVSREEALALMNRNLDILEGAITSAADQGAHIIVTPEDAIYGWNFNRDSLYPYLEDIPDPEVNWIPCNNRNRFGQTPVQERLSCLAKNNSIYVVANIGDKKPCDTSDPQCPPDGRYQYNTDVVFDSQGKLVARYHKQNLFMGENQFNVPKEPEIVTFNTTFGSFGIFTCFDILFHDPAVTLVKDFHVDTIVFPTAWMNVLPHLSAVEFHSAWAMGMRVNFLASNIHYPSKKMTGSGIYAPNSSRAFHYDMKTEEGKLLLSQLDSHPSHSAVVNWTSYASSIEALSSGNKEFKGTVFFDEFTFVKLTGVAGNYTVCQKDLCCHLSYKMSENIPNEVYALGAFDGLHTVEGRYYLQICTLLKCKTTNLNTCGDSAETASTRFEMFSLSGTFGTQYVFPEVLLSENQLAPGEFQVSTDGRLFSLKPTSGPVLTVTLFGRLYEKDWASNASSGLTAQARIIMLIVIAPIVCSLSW
# Description: (§1) Test compounds were prepared as 111X stocks in 100% DMSO. Kd values were determined using an 11-point 3-fold compound dilution series with three DMSO control points. […] The compounds were then diluted directly into the assays such that the final concentration of DMSO was 0.9%. All reactions were performed in polypropylene 384-well plate. Each was a final volume of 0.02 ml. […] The beads were then re-suspended in elution buffer (1×PBS, 0.05% Tween 20, 0.5 μM non-biotinylated affinity ligand) and incubated at room temperature with shaking for 30 minutes. The kinase concentration in the eluates was measured by qPCR.
# Binding constants were calculated with a standard dose-response curve using the Hill equation:
# The Hill Slope was set to −1. Curves were fitted using a non-linear least square fit with the Levenberg-Marquardt algorithm. The binding data is summarized in Table 1 where A is less than 100 nM, B is 100 to 500 nM, and C is greater than 500 nM.
# as §1, with “are” for “were”, “is” for “was”, “reactions” for “reactions were”
# Binding constants are calculated with a standard dose-response curve using the Hill equation:
# The Hill Slope was set to −1. Curves were fitted using a non-linear least square fit with the Levenberg-Marquardt algorithm. The binding data is summarized in Table 4 where A is less than 100 nM, B is 100 to 500 nM, and C is greater than 500 nM.
# [2] = tested on: TNF-alpha (TNFA), interleukin 6 (IL6), interleukin 1beta (IL1B), MCP1 and interleukin 8 (IL8); assay: Immune cellular assay, cytokine ELISA multiplex in LPS-treated THP-1 derived macrophages; type: cell-based, human; conditions: 1 μM, THP-1 macrophages, 100 ng/mL LPS for 4 or 24 hours
# Description: The anti-inflammatory properties of the four VNN1 inhibitors (Compound 1, Compound 2, Compound 3, and Compound 80) were evaluated in an immune cellular assay targeting key pro-inflammatory cytokines involved in the pathogenesis of multiple autoimmune disease.
# Specifically, THP-1 human monocytes were grown in 6-well plates (RPMI 1640+10% FBS+1% P/S). After washing with PBS the THP-1 cells were differentiated into macrophages using 20 nM of phorbol 12-myristate 13-acetate (PMA) for 24 hrs. Compound 1, Compound 2, Compound 3, and Compound 80 (1 μM) were added into the macrophages, which are incubated for 4 hours before the addition of 100 ng/mL lipopolysaccharide (LPS) for either 4 or 24 hours. Next, the macrophages are collected via centrifugation at 1.2K rpm for 5 min and use their media to evaluate cytokine protein levels by using the Bio-rad Cytokine ELISA multiplex assay (cat. No M5000031YV). The supernatants from macrophages treated only with only LPS+PMA are collected and use as negative controls.
# The anti-inflammatory properties of the VNN1 inhibitors Compound 5, Compound 9, Compound 10, Compound 13, Compound 14, Compound 16, Compound 20, Compound 21, Compound 26, Compound 23, and Compound 24 are evaluated using the immune cellular assay outlined in Example 6. Suppression of TNF-alpha (TNFA), interleukin 6 (IL6), interleukin 1beta (IL1B), MCP1 and interleukin 8 (IL8) is determined.
# CYP2D6 = CYP2D6 (Homo sapiens (Human), UniProt P10635); assay: Cytochrome P450 inhibition assay, substrate cocktail in human liver microsome; type: in vitro ADME; conditions: microsomes
# Chain of CYP2D6 (P10635 whole entry): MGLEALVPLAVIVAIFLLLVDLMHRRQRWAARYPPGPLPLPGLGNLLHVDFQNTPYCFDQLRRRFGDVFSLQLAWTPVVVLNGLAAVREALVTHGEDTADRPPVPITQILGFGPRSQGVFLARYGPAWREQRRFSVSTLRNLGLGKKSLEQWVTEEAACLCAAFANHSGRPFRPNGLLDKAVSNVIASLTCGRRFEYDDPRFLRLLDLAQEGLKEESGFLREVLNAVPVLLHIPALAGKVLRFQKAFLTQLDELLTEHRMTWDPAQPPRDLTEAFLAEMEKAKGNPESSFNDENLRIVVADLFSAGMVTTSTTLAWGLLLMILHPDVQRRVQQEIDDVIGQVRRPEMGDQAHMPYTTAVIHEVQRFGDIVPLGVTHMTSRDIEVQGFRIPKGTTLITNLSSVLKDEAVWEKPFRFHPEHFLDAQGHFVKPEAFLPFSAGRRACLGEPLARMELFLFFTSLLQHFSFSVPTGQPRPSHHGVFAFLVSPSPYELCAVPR
# Description: (§2) Cytochrome P450 inhibition of a drug is a key factor in determining pharmacokinetic drug-drug interactions. The objective of this study is to evaluate the inhibition potential of VNN1 inhibitors on six (6) major human cytochrome P450 enzymes, including CYP1A2, CYP2C8, CYP2C9, CYP2C19, CYP2D6, and CYP3A4. Inhibition was determined by using a substrate cocktail and analyzing the rate of specific metabolites formation. The cytochrome P450 inhibition assay was developed using a cocktail consisting of six (6) probe substrates ethoxy-resorufin (CYP1A2), rosiglitazone (CYP2C8), diclofenac (CYP2C9), S-mephenytoin (CYP2C19), dextromethorphan (CYP2D6), and midazolam (CYP3A4). The cocktail was incubated in human liver microsome with NADPH regenerating system (NRS) in a shaking bath at 37±2° C. The formation of specific metabolites was monitored by LC/MS/MS. Test compound was added to the cocktail-liver microsome mixture at varying concentrations and its effect on cytochrome P450 activity was determined by analyzing the rate of specific metabolite formation. The percent inhibition was calculated and plotted with reference to the concentration, and the IC50 value for inhibition was derived by fitting the data with a standard sigmoidal dose-response equation via MLA “Quest Graph™ ED50 Calculator.” AAT Bioquest, Inc, 17 Sep. 2020, aatbio.com/tools/ed50-calculator. […]. […].
# (§3) Inhibition by Cytochrome P450 is determined using a substrate cocktail and analyzing the rate of specific metabolites formation outlined in Example 21. The following structures were tested: Compound 5, Compound 9, Compound 10, Compound 13, Compound 14, Compound 16, Compound 20, Compound 21, Compound 23, Compound 24, and Compound 25.
# CYP2C19 = CYP2C19 (Homo sapiens (Human), UniProt P33261); assay: as above; type: in vitro ADME; conditions: CYP isozyme 2C19, human liver microsome
# Chain of CYP2C19 (P33261 whole entry): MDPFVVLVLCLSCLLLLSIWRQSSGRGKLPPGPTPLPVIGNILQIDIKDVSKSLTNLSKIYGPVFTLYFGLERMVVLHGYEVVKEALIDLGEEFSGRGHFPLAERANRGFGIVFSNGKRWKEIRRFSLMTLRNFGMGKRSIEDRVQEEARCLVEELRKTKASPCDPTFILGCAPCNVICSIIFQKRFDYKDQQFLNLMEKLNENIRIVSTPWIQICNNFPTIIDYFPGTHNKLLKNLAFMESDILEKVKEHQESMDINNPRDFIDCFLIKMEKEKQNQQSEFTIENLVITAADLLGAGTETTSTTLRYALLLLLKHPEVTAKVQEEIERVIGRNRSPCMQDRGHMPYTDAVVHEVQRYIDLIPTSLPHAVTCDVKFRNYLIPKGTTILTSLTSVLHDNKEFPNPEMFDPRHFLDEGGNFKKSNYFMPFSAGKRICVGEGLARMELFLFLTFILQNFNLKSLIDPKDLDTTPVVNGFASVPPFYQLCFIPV
# Description: as §2, §3
# CYP2C8 = CYP2C8 (Homo sapiens (Human), UniProt P10632); assay: as above; type: in vitro ADME; conditions: microsomes
# Chain of CYP2C8 (P10632 whole entry): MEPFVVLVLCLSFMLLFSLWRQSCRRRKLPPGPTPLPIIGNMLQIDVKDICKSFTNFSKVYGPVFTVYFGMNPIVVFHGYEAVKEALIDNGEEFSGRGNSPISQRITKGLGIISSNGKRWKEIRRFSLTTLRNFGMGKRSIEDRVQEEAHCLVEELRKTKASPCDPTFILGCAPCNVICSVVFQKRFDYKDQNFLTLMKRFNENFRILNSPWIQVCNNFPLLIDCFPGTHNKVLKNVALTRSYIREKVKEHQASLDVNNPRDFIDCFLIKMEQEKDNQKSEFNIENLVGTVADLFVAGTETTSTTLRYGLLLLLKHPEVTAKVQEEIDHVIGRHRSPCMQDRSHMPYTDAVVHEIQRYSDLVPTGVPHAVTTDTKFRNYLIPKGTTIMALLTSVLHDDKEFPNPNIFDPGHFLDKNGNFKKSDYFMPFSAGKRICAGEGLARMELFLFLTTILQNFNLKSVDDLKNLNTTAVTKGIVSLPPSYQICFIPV
# Description: as §2, §3
# CYP1A2 = CYP1A2 (Homo sapiens (Human), UniProt P05177); assay: as above; type: in vitro ADME; conditions: microsomes
# Chain of CYP1A2 (P05177 whole entry): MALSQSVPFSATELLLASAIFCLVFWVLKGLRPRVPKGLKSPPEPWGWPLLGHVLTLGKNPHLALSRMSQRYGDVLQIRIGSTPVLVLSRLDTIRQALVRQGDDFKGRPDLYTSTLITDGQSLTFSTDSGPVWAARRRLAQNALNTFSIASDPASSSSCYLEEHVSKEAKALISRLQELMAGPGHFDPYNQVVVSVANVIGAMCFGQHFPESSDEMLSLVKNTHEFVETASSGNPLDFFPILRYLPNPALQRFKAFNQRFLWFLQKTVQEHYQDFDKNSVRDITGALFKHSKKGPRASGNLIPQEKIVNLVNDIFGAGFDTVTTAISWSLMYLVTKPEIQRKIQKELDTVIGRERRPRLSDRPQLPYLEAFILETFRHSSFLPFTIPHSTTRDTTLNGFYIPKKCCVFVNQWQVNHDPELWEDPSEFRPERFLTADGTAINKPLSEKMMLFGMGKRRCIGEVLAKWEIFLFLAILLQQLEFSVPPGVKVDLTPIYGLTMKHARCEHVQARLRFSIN
# Description: as §2, §3
# CYP2C9 = CYP2C9 (Homo sapiens (Human), UniProt P11712); assay: as above; type: in vitro ADME; conditions: microsomes
# Chain of CYP2C9 (P11712 whole entry): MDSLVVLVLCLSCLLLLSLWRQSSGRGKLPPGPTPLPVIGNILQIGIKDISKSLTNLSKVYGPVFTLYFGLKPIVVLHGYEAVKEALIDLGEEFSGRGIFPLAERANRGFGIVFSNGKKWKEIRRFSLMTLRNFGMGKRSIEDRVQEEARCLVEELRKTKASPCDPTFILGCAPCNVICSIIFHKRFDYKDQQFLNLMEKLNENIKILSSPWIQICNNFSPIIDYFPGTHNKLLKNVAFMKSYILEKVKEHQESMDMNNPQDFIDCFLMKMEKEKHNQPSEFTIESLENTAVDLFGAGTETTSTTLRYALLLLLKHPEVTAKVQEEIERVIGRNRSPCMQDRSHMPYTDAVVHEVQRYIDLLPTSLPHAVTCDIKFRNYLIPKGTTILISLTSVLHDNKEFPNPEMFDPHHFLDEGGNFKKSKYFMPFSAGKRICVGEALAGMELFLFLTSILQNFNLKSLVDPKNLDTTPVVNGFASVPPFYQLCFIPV
# Description: as §2, §3
# CYP3A4 = CYP3A4 (Homo sapiens (Human), UniProt P08684); assay: as above; type: in vitro ADME; conditions: microsomes
# Chain of CYP3A4 (P08684 whole entry): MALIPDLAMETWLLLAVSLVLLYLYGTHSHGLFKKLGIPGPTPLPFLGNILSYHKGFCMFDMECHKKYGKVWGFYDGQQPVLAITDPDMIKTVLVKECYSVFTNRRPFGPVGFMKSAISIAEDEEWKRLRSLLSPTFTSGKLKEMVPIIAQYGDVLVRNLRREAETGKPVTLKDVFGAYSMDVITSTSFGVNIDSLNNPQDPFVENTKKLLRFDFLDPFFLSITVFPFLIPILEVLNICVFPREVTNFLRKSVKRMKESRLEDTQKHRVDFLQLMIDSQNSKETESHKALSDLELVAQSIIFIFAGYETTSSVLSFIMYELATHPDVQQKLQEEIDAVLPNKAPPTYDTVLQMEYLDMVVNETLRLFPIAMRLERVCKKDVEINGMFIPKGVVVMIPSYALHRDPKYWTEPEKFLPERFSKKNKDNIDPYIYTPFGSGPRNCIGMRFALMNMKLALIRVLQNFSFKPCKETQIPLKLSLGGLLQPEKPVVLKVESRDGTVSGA
# Description: as §2, §3
# [3] = for Permeability, Pe: PAMPA, 5 h, 20 μM
# Description: as §4
# [4] = positive controls, published class; cited from earlier work
# in vitro = conditions: PAMPA
# Description: as §4
structure (smiles),measurement,setting,value
"O=C(Cc1ccccc1)c1ccn(C(=O)c2ccccc2F)c1 [Compound 1, 1-(1-(2-fluorobenzoyl)-1H-pyrrol-3-yl)-2-phenylethan-1-one]",suppression of TNF-alpha (TNFA) expression after LPS treatment,TNF-alpha (TNFA),suppression; also recorded: significantly inhibits
same,"Permeability, Pe",[1],23.6 ×10⁻⁶ cm/s
same,Kd,Vanin-1,100 to 500 nM
same,"activity against IL6, TNFA and MCP1",[2],highly potent activity
same,IC50,CYP2D6,> 100 µM
same,IC50,CYP2C19,50.6 µM
same,IC50,CYP2C8,> 100 µM
same,IC50,CYP1A2,> 100 µM
same,IC50,CYP2C9,> 100 µM
same,IC50,CYP3A4,> 100 µM
"O=C(Cc1ccccc1)c1ccn(Cc2c(F)cccc2F)c1 [Compound 2, 1-(1-(2,6-difluorobenzyl)-1H-pyrrol-3-yl)-2-phenylethan-1-one]",suppression of TNF-alpha (TNFA) expression after LPS treatment,TNF-alpha (TNFA),suppression; also recorded: significantly inhibits
same,Kd,Vanin-1,100 to 500 nM
same,"activity against IL6, TNFA and MCP1",[2],highly potent activity
same,IC50,CYP2D6,27 µM
same,IC50,CYP2C19,15.3 µM
same,IC50,CYP2C8,65.5 µM
same,IC50,CYP1A2,> 100 µM
same,IC50,CYP2C9,63.4 µM
same,IC50,CYP3A4,73.7 µM
same,"Permeability, Pe",[3],13.6 ×10⁻⁶ cm/s
"O=C(c1ccn(Cc2c(F)cccc2F)c1)C(Cc1c(F)cccc1F)c1ccccc1 (stereo not shown) [Compound 3, 1-(1-(2,6-difluorobenzyl)-1H-pyrrol-3-yl)-3-(2,6-difluorophenyl)-2-phenylpropan-1-one]",Kd,Vanin-1,> 500 nM
same,"activity against IL6, TNFA and MCP1",[2],highly potent activity
"Cn1c(C(=O)Cc2ccccc2)ccc1C(=O)c1ccccc1F [Compound 22, 1-(5-(2-fluorobenzoyl)-1-methyl-1H-pyrrol-2-yl)-2-phenylethan-1-one]",Kd,Vanin-1,< 100 nM
"Cn1c(C(=O)Cc2ccccc2)ccc1C(=O)c1ccccn1 [Compound 25, 1-(1-methyl-5-picolinoyl-1H-pyrrol-2-yl)-2-phenylethan-1-one]",Kd,Vanin-1,100 to 500 nM
"Cn1c(C(=O)c2ccccc2F)ccc1C(=O)N1CCC2(CCOCC2)C1 [Compound 33, (5-(2-fluorobenzoyl)-1-methyl-1H-pyrrol-2-yl) (8-oxa-2-azaspiro[4.5]decan-2-yl) methanone]",Kd,Vanin-1,< 100 nM
"Cn1c(C(=O)NC(C)(C)C)ccc1C(=O)c1ccccc1F [Compound 43, N-(tert-butyl)-5-(2-fluorobenzoyl)-1-methyl-1H-pyrrole-2-carboxamide]",Kd,Vanin-1,< 100 nM
"Cn1cc(C(=O)Cc2ccccc2)cc1C(=O)c1ccccc1F [Compound 46, 1-(5-(2-fluorobenzoyl)-1-methyl-1H-pyrrol-3-yl)-2-phenylethan-1-one]",Kd,Vanin-1,> 500 nM
"O=C(Cc1ccccc1)c1c[nH]c(C(=O)c2ccccc2F)c1 [Compound 47, 1-(5-(2-fluorobenzoyl)-1H-pyrrol-3-yl)-2-phenylethan-1-one]",Kd,Vanin-1,> 500 nM
"Cn1cc(C(=O)c2ccccc2F)cc1C(=O)O [Compound 76, 4-(2-fluorobenzoyl)-1-methyl-1H-pyrrole-2-carboxylic acid]",Kd,Vanin-1,> 500 nM
"Cn1cc(C(=O)c2ccccc2F)cc1C(=O)N1CCC2(CCOCC2)C1 [Compound 77, (4-(2-fluorobenzoyl)-1-methyl-1H-pyrrol-2-yl) (8-oxa-2-azaspiro[4.5]decan-2-yl) methanone]",Kd,Vanin-1,< 100 nM
"CC(=O)N(C)[C@@H]1CCN(C(=O)c2cc(C(=O)c3ccccc3F)cn2C)C1 [Compound 78, (R)—N-(1-(4-(2-fluorobenzoyl)-1-methyl-1H-pyrrole-2-carbonyl)pyrrolidin-3-yl)-N-methylacetamide]",Kd,Vanin-1,< 100 nM
"Cn1cccc1C(=O)Cc1ccccc1 [Compound 80, 1-(1-methyl-1H-pyrrol-2-yl)-2-phenylethan-1-one]","activity against IL6, TNFA and MCP1",[2],highly potent activity
O=C(O)Cc1ccccc1Nc1c(Cl)cccc1Cl [Diclofenac],published permeability,[4],high
same,"Permeability, Pe",[3],10.9 ×10⁻⁶ cm/s
CCN1CCCC1CNC(=O)c1cc(S(N)(=O)=O)ccc1OC (stereo not shown) [Sulpiride],published permeability,[4],low
same,"Papp at 5 h, 20 μM",in vitro,0.0392 ×10⁻⁶ cm/s
same,PAMPA permeability Classification,[3],Low/Medium

# — patent publication US20250042850A1, “PHARMACEUTICAL COMPOUNDS AND METHODS OF MAKING AND USING THE SAME” (Athos Therapeutics, Inc., priority 2021, published 2025)
